Source: patent US4656161A, “Increasing the enteral absorbability of heparin or heparinoids” (BASF Aktiengesellschaft, priority 1983, dated 1987)

How the values were obtained:
[1] = Heparin/heparinoid concentration in blood after oral administration of capsules to beagles (citrated plasma, chromogenic substrate); type: in vivo, beagle dogs; conditions: for heparin level in the blood, without surfactant: in the absence of added surfactant; for heparin or heparinoid concentration in the blood, without surfactant (in words): without the addition of a surfactant
Experimental: (§1) A. 2 of the capsules obtained as described in Examples 1a-1d or 3a-3b (total dose 28,000 IU of heparin or 700 mg of heparinoid) were administered orally to each of a number of beagles weighing about 7 kg. The concentration of active compound in the blood of the dogs was determined before and 30 minutes, 1 hour and 2, 3, 5, 8, 14 and 24 hours after the administration of heparin. The heparin was determined in citrated plasma, using a chromogenic substrate (cf. Thromb. Res. 8 (1976), 413 and Volume 2 of Reports, Thrombosis and Hemostasis Congress, Munster, 1982, Schattauer Verlag, Stuttgart, pages 238-246). The thrombin time was also determined (cf. Kleiner Gerinnungstatus, published by Behringwerke, 1982, page 40). The heparin or heparinoid concentration (c) in the blood and the quotient T of the thrombin time of the treated animals to that of the untreated animals reached their highest values after 2 hours.
(§2) Since, in contrast to heparin, heparinoids prolong the bleeding time (in this case the thrombin time) only slightly, if at all, they are not standardized on the basis of anticoagulant activity.

thrombin time = test: Thrombin time after oral administration of capsules to beagles; type: in vivo, beagle dogs; conditions: without the addition of a surfactant
Experimental: as §1, §2

heparin level in the blood, without surfactant [1] | Substance | thrombin time, without surfactant (in words) (thrombin time) | heparin or heparinoid concentration in the blood, without surfactant (in words) [1]
0.25 IU/ml | heparin [heparin used in Example 1d] | no change in the thrombin time | 
 | heparin [heparin used in Example 1b] | did not change the thrombin time | did not result in a measurable heparin or heparinoid concentration in the blood
 | mucopolysaccharide polysulfate [heparinoid used in Example 3b] | did not change the thrombin time | did not result in a measurable heparin or heparinoid concentration in the blood
0.15 IU/ml | heparin [heparin used in Example 1c] | no change in the thrombin time | 
 | sodium pentosan polysulfate [heparinoid used in Example 3a] | did not change the thrombin time | did not result in a measurable heparin or heparinoid concentration in the blood
 | heparin [heparin used in Example 1a] | did not change the thrombin time | did not result in a measurable heparin or heparinoid concentration in the blood
